Measured values as given in patent US7186743B2, “Substituted pyrazolyl compounds for the treatment of inflammation” (Pharmacia Corporation, priority 2001, dated 2007).
pIC50: −log10 of the molar value. Counter-ions that a name gives are not always drawn. Like-named read-outs stand apart in the source and are kept apart here.

Target: T1, IKK2 (Homo sapiens, UniProt O14920)
T1 construct: made in house; host or cells: insect cells (baculovirus, pFastBac; SF9)
T1 sequence (O14920 1-756): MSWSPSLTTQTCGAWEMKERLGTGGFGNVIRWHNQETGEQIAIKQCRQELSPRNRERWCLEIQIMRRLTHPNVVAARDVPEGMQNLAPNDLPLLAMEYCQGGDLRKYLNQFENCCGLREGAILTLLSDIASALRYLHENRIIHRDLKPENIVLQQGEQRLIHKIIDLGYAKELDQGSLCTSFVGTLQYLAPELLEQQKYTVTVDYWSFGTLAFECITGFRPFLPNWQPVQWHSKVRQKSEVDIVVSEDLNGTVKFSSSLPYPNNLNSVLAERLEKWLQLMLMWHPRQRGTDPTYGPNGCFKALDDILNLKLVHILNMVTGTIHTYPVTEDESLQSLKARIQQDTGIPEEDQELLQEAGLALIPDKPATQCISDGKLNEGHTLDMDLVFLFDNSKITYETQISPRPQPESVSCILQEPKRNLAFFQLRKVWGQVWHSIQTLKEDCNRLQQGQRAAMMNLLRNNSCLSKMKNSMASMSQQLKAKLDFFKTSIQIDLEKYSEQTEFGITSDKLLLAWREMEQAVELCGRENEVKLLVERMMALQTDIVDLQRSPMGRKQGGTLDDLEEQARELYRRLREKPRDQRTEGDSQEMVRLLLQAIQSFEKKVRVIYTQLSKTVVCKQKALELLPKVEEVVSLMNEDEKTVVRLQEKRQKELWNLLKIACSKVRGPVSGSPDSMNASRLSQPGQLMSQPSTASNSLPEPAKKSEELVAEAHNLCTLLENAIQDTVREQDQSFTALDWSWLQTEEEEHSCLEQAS
Experiment: IKKβ Resin Enzyme Assay (IKK2 resin)
Format: biochemical
Outline: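 Enzyme: human IKK2 with a C-terminal FLAG tag, baculovirus-expressed, purified as homodimer on anti-FLAG resin. It phosphorylates a biotinylated IκBα peptide with 1 μM ATP plus [γ-33P]ATP in 25 mM Hepes pH 7.6, Mg/Mn, for 30 min at 25° C. Incorporation is counted by scintillation after anion-exchange resin stop.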

[1] = Table 4, read-out: IKK2 Resin IC50
[2] = Table 3, read-out: IKK Resin IC50
[3] = Table 15, read-out: IKK2 Resin IC50
[4] = Table 14, read-out: IKK2 Resin IC50
[5] = Table 11, read-out: IKK2 Resin IC50
[6] = Table 6, read-out: IKK2 Resin IC 50

In the case of `NC(=O)c1nn(-c2ccsc2)c2c1CCc1ccc(NC(=O)c3ccncc3Cl)cc1-2` [Example 383, 8-[(3-chloroisonicotinoyl)amino]-1-thien-3-yl-4,5-dihydro-1H-benzo[g]indazole-3-carboxamide], the pIC50 (Table for Examples 381-385 (headed TABLE 14), read-out: IKK2 Resin IC50) was ≥ 6.00.
`Cc1ccc(C(=O)Nc2ccc3c(c2)-c2c(c(C(N)=O)nn2-c2ccc4c(c2)OCO4)CC3)c(Cl)n1` [Example 167, 1-(1,3-benzodioxol-5-yl)-8-{[(2-chloro-6-methylpyridin-3-yl)carbonyl]amino}-4,5-dihydro-1H-benzo[g]indazole-3-carboxamide] was tested, and the pIC50 [1] was ≥ 6.00.
In the case of `COc1cc(Cl)c(C(=O)Nc2ccc3c(c2)-c2c(c(C(N)=O)nn2-c2ccc4c(c2)OCO4)CC3)cc1OC` [Example 174, 1-(1,3-benzodioxol-5-yl)-8-[(2-chloro-4,5-dimethoxybenzoyl)amino]-4,5-dihydro-1H-benzo[g]indazole-3-carboxamide], the pIC50 [1] was ≥ 6.00.
With `CSc1ccc(Cl)c(C(=O)Nc2ccc3c(c2)-c2c(c(C(N)=O)nn2-c2ccc(S(C)(=O)=O)cc2)CC3)c1` [Example 137, 8-{[2-chloro-5-(methylthio)benzoyl]amino}-1-[4-(methylsulfonyl)phenyl]-4,5-dihydro-1H-benzo[g]indazole-3-carboxamide] the pIC50 [2] was ≥ 6.00.
With `CS(=O)(=O)c1ccc(-n2nc(C(N)=O)c3c2-c2cc(NC(=O)c4cc(Br)ccc4Cl)ccc2CC3)cc1` [Example 136, 8-[(5-bromo-2-chlorobenzoyl)amino]-1-[4-(methylsulfonyl)phenyl]-4,5-dihydro-1H-benzo[g]indazole-3-carboxamide] the pIC50 [2] was ≥ 6.00.
In the case of `CS(=O)(=O)c1ccc(-n2nc(C(N)=O)c3c2-c2cc(NC(=O)c4ccccc4)ccc2CC3)cc1` [Example 140, 8-(benzoylamino)-1-[4-(methylsulfonyl)phenyl]-4,5-dihydro-1H-benzo[g]indazole-3-carboxamide], the pIC50 [2] was ≥ 6.00.
For `CSc1ccc(-n2nc(C(N)=O)c3c2-c2cc(NC(=O)c4cc(N)ccc4Cl)ccc2CC3)cc1` [Example 414, 8-[(5-amino-2-chlorobenzoyl)amino]-1-[4-(methylthio)phenyl]-4,5-dihydro-1H-benzo[g]indazole-3-carboxamide hydrochloride], the pIC50 (Table 19, read-out: IKK2 Resin IC50) was ≥ 6.00.
For `C=Cc1ccc(-n2nc(C(N)=O)c3c2-c2cc(NC(=O)c4cccnc4Cl)ccc2CC3)cc1` [Example 389, 8-{[(2-chloropyridin-3-yl)carbonyl]amino}-1-(4-vinylphenyl)-4,5-dihydro-1H-benzo[g]indazole-3-carboxamide], the pIC50 (Table 17, read-out: IKK2 Resin IC50) was ≥ 6.00.
In the case of `CS(=O)(=O)c1ccc(-n2nc(C(N)=O)c3c2-c2cc(NC(=O)c4ccccc4C(F)(F)F)ccc2CC3)cc1` [Example 93, 1-[4-(methylsulfonyl)phenyl]-8-{[2-(trifluoromethyl)benzoyl]amino}-4,5-dihydro-1H-benzo[g]indazole-3-carboxamide], the pIC50 (Table 2, read-out: IKK Resin IC50) was ≥ 6.00.
With `CS(=O)(=O)c1ccc(-n2nc(C(N)=O)c3c2-c2cc(NC(=O)c4ccc([N+](=O)[O-])cc4Cl)ccc2CC3)cc1` [Example 146, 8-[(2-chloro-4-nitrobenzoyl)amino]-1-[4-(methylsulfonyl)phenyl]-4,5-dihydro-1H-benzo[g]indazole-3-carboxamide] the pIC50 [2] was ≥ 6.00.
Compound `CN(C)CCNC(=O)c1ccc(-n2nc(C(N)=O)c3c2-c2cc(NC(=O)c4ccccc4Cl)ccc2CC3)cc1` [Example 380, 8-[(2-chlorobenzoyl)amino]-1-[4-({[2-(dimethylamino)ethyl]amino}carbonyl)phenyl]-4,5-dihydro-1H-benzo[g]indazole-3-carboxamide hydrochloride] has a pIC50 [3] of 5.00 to 6.00.
In the case of `NC(=O)c1nn(-c2ccc(F)cc2F)c2c1CCc1ccc(NC(=O)c3cccnc3Cl)cc1-2` [Example 366, 8-{[(2-chloropyridin-3-yl)carbonyl]amino}-1-(2,4-difluorophenyl)-4,5-dihydro-1H-benzo[g]indazole-3-carboxamide], the pIC50 [4] was ≥ 6.00.
For `Cc1ccc(-n2nc(C(N)=O)c3c2-c2cc(NC(=O)c4ccccc4Cl)ccc2CC3)cc1` [Example 335, 8-[(2-chlorobenzoyl)amino]-1-(4-methylphenyl)-4,5-dihydro-1H-benzo[g]indazole-3-carboxamide], the pIC50 [4] was ≥ 6.00.
In the case of `NC(=O)c1nn(-c2ccc(/C=C\CO)cc2)c2c1CCc1ccc(NC(=O)c3cccnc3Cl)cc1-2` [Example 300, 8-{[(2-chloropyridin-3-yl)carbonyl]amino}-1-{4-[(1Z)-3-hydroxyprop-1-enyl]phenyl}-4,5-dihydro-1H-benzo[g]indazole-3-carboxamide], the pIC50 [5] was ≥ 6.00.
In the case of `Cc1ccc([N+](=O)[O-])c(C(=O)Nc2ccc3c(c2)-c2c(c(C(N)=O)nn2-c2ccc(S(C)(=O)=O)cc2)CC3)c1` [Example 153], the pIC50 [2] was ≥ 6.00.
In the case of `Cc1c(O)cccc1C(=O)Nc1ccc2c(c1)-c1c(c(C(N)=O)nn1-c1ccc(F)cc1)CC2` [Example 231, 1-(4-fluorophenyl)-8-[(3-hydroxy-2-methylbenzoyl)amino]-4,5-dihydro-1H-benzo[g]indazole-3-carboxamide], the pIC50 [6] was ≥ 6.00.
`NC(=O)c1nn(-c2ccc3c(c2)OCO3)c2c1CCc1ccc(NC(=O)c3ccc(N)cc3Cl)cc1-2` [Example 180, 8-[(4-amino-2-chlorobenzoyl)amino]-1-(1,3-benzodioxol-5-yl)-4,5-dihydro-1H-benzo[g]indazole-3-carboxamide] was tested, and the pIC50 [1] was ≥ 6.00.
With `NC(=O)c1nn(-c2ccccc2)c2c1CCc1ccc(NC(=O)c3ccccc3Cl)cc1-2` [Example 328, 8-[(2-chlorobenzoyl)amino]-1-phenyl-4,5-dihydro-1H-benzo[g]indazole-3-carboxamide] the pIC50 [4] was ≥ 6.00.
`NC(=O)c1nn(-c2ccc(F)cc2)c2c1CCc1ccc(NC(=O)c3cc(N)ccc3Cl)cc1-2` [Example 236, 8-[(5-amino-2-chlorobenzoyl)amino]-1-(4-fluorophenyl)-4,5-dibydro-1H-benzo[g]indazole-3-carboxamide] was tested, and the pIC50 [6] was ≥ 6.00.
`NC(=O)c1nn(-c2ccc3c(c2)OCO3)c2c1CCc1ccc(NC(=O)c3ccc(C(F)(F)F)nc3Cl)cc1-2` [Example 181, 1-(1,3-benzodioxol-5-yl)-8-({[2-chloro-6-(trifluoromethyl)pyridin-3-yl]carbonyl}amino)-4,5-dihydro-1H-benzo[g]indazole-3-carboxamide] was tested, and the pIC50 [1] was ≥ 6.00.
In the case of `NC(=O)c1nn(-c2ccc(/C=C/C(=O)O)cc2)c2c1CCc1ccc(NC(=O)c3ccccc3Cl)cc1-2` [Example 291, (2E)-3-(4-{3-(aminocarbonyl)-8-[(2-chlorobenzoyl)amino]-4,5-dihydro-1H-benzo[g]indazol-1-yl}phenyl)prop-2-enoic acid], the pIC50 [5] was ≥ 6.00.
`NC(=O)c1nn(-c2ccc3c(c2)OCO3)c2c1CCc1ccc(NC(=O)c3c(N)cccc3Cl)cc1-2` [Example 169, 8-[(2-amino-6-chlorobenzoyl)amino]-1-(1,3-benzodioxol-5-yl)-4,5-dihydro-1H-benzo[g]indazole-3-carboxamide] was tested, and the pIC50 [1] was ≥ 6.00.
`CS(=O)(=O)c1ccc(C(=O)Nc2ccc3c(c2)-c2c(c(C(N)=O)nn2-c2ccc4c(c2)OCO4)CC3)c(Cl)c1` [Example 163, 1-(1,3-benzodioxol-5-yl)-8-{[2-chloro-4-(methylsulfonyl)benzoyl]amino}-4,5-dihydro-1H-benzo[g]indazole-3-carboxamide] was tested, and the pIC50 [1] was ≥ 6.00.
In the case of `NC(=O)c1nn(-c2ccc(N3CCOCC3)cc2)c2c1CCc1ccc(NC(=O)c3cccnc3Cl)cc1-2` [Example 288, 8-{[(2-chloropyridin-3-yl)carbonyl]amino}-1-(4-morpholin-4-ylphenyl)-4,5-dihydro-1H-benzo[g]indazole-3-carboxamide], the pIC50 (read-out: IKK-2 resin IC50) was 5.00 to 6.00.
For `NC(=O)c1nn(-c2ccc(N)cc2)c2c1CCc1ccc(NC(=O)c3ccccc3Cl)cc1-2` [Example 370, 1-(4-aminophenyl)-8-[(2-chlorobenzoyl)amino]-4,5-dihydro-1H-benzo[g]indazole-3-carboxamide], the pIC50 [3] was ≥ 6.00.
With `NC(=O)c1nn(-c2ccccc2F)c2c1CCc1ccc(NC(=O)c3ccccc3Cl)cc1-2` [Example 341, 8-[(2-chlorobenzoyl)amino]-1-(2-fluorophenyl)-4,5-dihydro-1H-benzo[g]indazole-3-carboxamide] the pIC50 [4] was ≥ 6.00.
In the case of `CS(=O)(=O)c1ccc(C(=O)Nc2ccc3c(c2)-c2c(c(C(N)=O)nn2-c2ccc(F)cc2)CC3)c(Cl)c1` [Example 226, 8-{[2-chloro-4-(methylsulfonyl)benzoyl]amino}-1-(4-fluorophenyl)-4,5-dihydro-1H-benzo[g]indazole-3-carboxamide], the pIC50 [6] was ≥ 6.00.
